{"source": "patent US20100119506A1", "about": "“Effectors of PAR-2 Activation and Their Use in the Modulation of Inflammation” (BOEHRINGER INGELHEIM INTERNATIONAL GMBH, priority 2008, published 2010)", "tested_on": "trans vivo delayed type hypersensitivity (DTH)", "experiment": "Trans vivo DTH model (footpad swelling)", "type": "in vivo, mouse", "conditions": "10 mg/kg; 24 hours after PBMCs and TT", "method": "FIGS. 8A and 8B show the ability of anti-PAR-2 antibodies Par-B (FIG. 8A) and Par-D (FIG. 8B) to inhibit trans vivo DTH. Shown are the changes in paw thickness after injection of human peripheral blood mononuclear cells alone (PBMC) or after injection of PBMCs and […] (TT). Mice were pretreated (ip at −3 hours) with PBS, hu IgG4 (20 mg/kg), or anti-PAR-2 antibody. Percent inhibition is shown at top of the bars. *p<0.05 as compared to PBS.\nThe trans vivo delayed type hypersensitivity (DTH) is a validated model of human T cell mediated inflammation in mice (Warnecke, G. et al. (2007) Transplantation 84(3):392-399; Pelletier, R. P. et al. (Mar. 28, 2007, Epub) Hum. Immunol. 68(6):514-522; Carrodeguas, L. et al. (1999) Hum. Immunol. 60(8):640-651). In this assay, human PBMCs from tetanus-sensitized donors are isolated and co-injected with tetanus toxoid (TT) into the mouse footpad. The swelling response that develops in the footpad is measured at 24 hours. This swelling response is dependent on antigen-specific activation of the human T cells as well as on the inflammation mediated by mouse cells.\nShown in FIG. 8A and FIG. 8B, are the changes in footpad thickness 24 hours after injection of PBMCs and TT."}
{"smiles": "C[C@@H]1C[C@H]2[C@@H]3CCC4=CC(=O)C=C[C@]4(C)[C@@]3(F)[C@@H](O)C[C@]2(C)[C@@]1(O)C(=O)CO", "note": "[dexamethasone, reference compound]", "values": [{"measurement": "inhibition of footpad swelling response", "result": "approximately 80%"}]}
